Consider two compounds from PMC9355812 (The Oncologist, 2022).

The conditions of data set [1]: paclitaxel 100 mg/m^2; patients receiving PIs (nelfinavir, indinavir, other multiple protease inhibitors); Kaposi Sarcoma and HIV; cited from earlier work.
A short description of data set [2]: Paclitaxel plasma pharmacokinetics, cycle 1 day 1. Type of data set: in vivo, human.
A short description of data set [3]: Adverse events, NCI CTCAE version 4.0, worst grade in any cycle. Type of data set: in vivo, human. The settings on record: 2 patients, first vorinostat dose level (400 mg orally days 1-5 of each cycle).
Setting [4] is: Ritonavir cohort, cycle 1, paclitaxel 175 mg/m^2 IV with carboplatin.

Regarding `CC(=O)O[C@H]1C(=O)[C@@]2(C)[C@H]([C@H](OC(=O)c3ccccc3)[C@]3(O)C[C@H](OC(=O)[C@H](O)[C@@H](NC(=O)c4ccccc4)c4ccccc4)C(C)=C1C3(C)C)[C@]1(OC(C)=O)CO[C@@H]1C[C@@H]2O` [Paclitaxel], the “Paclitaxel exposure as measured by AUC” value in data set [1] was 5.5 ± 2.2 µM·h. Also, the “differences in Cmax or AUCinf between the 2 cohorts” value in data set [2] (6 patients, ritonavir vs non-ritonavir) was “no significant differences”. In data set [2] (setting [4]), the Cl came to 4.1 L/hr/m^2 and the “Time > C 0.5 µM” value is 22.7 h. Moreover, the “duration spent at a paclitaxel concentration >0.05 µM” value in data set [2] (non-ritonavir cohort) was found to be 23.8 h. The “pharmacokinetic interaction with ritonavir” value in data set [2] (ritonavir at a boosting dose for ART in combination with paclitaxel) is listed as “no evidence for pharmacokinetic interaction”. In data set [2] (ritonavir cohort), the “duration spent at a paclitaxel concentration >0.05 µM” value amounted to 22.7 h.

With `O=C(CCCCCCC(=O)Nc1ccccc1)NO` [vorinostat], in data set [3], the “toxicity of PCb combination with vorinostat” value is given as “without prohibitive toxicity”.
